Data reported in patent US6600047B2, “Process for making amlodipine maleate” (Synthon BV, priority 2001, dated 2003).

SMILES: CCOC(=O)C1=C(COCCNC(CC(=O)O)C(=O)O)NC(C)=C(C(=O)OC)C1c1ccccc1Cl (stereo not shown) [formula (1)]
- melting point: 178 to 183 °C (dec.)
